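Grown in 96-well plates, cells were treated for 48 hours with each compound at five concentrations. Insufficient inhibition: endpoint recorded as highest concentration tested. Here, GI50 denotes the concentration required for 50% inhibition of growth.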 The source made the active and inactive calls. No stated cut-off is given here; in the data, active = GI50 up to about 1.1 µM and inactive = higher.
Experiments:
Test in all cases: NCI-60 cell line screen, 48 h
A549 = tested on: A549
ACHN = tested on: ACHN
BT-549 = tested on: BT-549
CAKI-1 = tested on: CAKI-1
CCRF-CEM = tested on: CCRF-CEM
COLO 205 = tested on: COLO 205
DU-145 = tested on: DU-145
EKVX = tested on: EKVX
HCC 2998 = tested on: HCC 2998
HCT-116 = tested on: HCT-116
HCT-15 = tested on: HCT-15
HL-60 = tested on: HL-60
HOP-62 = tested on: HOP-62
HOP-92 = tested on: HOP-92
HT-29 = tested on: HT-29
Hs-578T = tested on: Hs-578T
IGROV-1 = tested on: IGROV-1
K562 = tested on: K562
KM12 = tested on: KM12
LOX IMVI = tested on: LOX IMVI
M14 = tested on: M14
MCF7 = tested on: MCF7
MDA-MB-231 = tested on: MDA-MB-231
MDA-MB-435 = tested on: MDA-MB-435
MDA-N = tested on: MDA-N
MOLT-4 = tested on: MOLT-4
Malme-3M = tested on: Malme-3M
NCI-H226 = tested on: NCI-H226
NCI-H23 = tested on: NCI-H23
NCI-H460 = tested on: NCI-H460
NCI-H522 = tested on: NCI-H522
NCI/ADR-RES = tested on: NCI/ADR-RES
OVCAR-3 = tested on: OVCAR-3
OVCAR-4 = tested on: OVCAR-4
OVCAR-5 = tested on: OVCAR-5
OVCAR-8 = tested on: OVCAR-8
PC-3 = tested on: PC-3
RPMI-8226 = tested on: RPMI-8226
RXF 393 = tested on: RXF 393
SF-268 = tested on: SF-268
SF-295 = tested on: SF-295
SF-539 = tested on: SF-539
SK-MEL-28 = tested on: SK-MEL-28
SK-MEL-2 = tested on: SK-MEL-2
SK-MEL-5 = tested on: SK-MEL-5
SK-OV-3 = tested on: SK-OV-3
SN12C = tested on: SN12C
SNB-19 = tested on: SNB-19
SNB-75 = tested on: SNB-75
SR = tested on: SR
SW-620 = tested on: SW-620
T47D = tested on: T47D
TK-10 = tested on: TK-10
U-251 = tested on: U-251
UACC-257 = tested on: UACC-257
UACC-62 = tested on: UACC-62
UO-31 = tested on: UO-31
786-0 = tested on: 786-0
A498 = tested on: A498

`COc1ccc(C(=C2C=CC=C2)c2ccc(OC)cc2)cc1` was tested, and the GI50 (A549) was 44.9 µM (inactive), the GI50 (ACHN) was 36.7 µM (inactive) and the GI50 (BT-549) was > 100 µM (inactive). The GI50 (CAKI-1) was 23 µM (inactive), the GI50 (CCRF-CEM) was 21.9 µM (inactive) and the GI50 (COLO 205) was 23.7 µM (inactive). The GI50 (DU-145) was 40.7 µM (inactive), the GI50 (EKVX) was 41 µM (inactive) and the GI50 (HCC 2998) was 19.3 µM (inactive). For the same molecule, the GI50 (HCT-116) was 26.4 µM (inactive), the GI50 (HCT-15) was 25.5 µM and the GI50 (HL-60) was 36.4 µM (inactive). The GI50 (HOP-62) was 39.9 µM (inactive), the GI50 (HOP-92) was 27.8 µM (inactive) and the GI50 (HT-29) was 24 µM (inactive). The GI50 (Hs-578T) was 33.6 µM (inactive), the GI50 (IGROV-1) was 52 µM (inactive) and the GI50 (K562) was 22.2 µM (inactive). For the same molecule, the GI50 (KM12) was 45.9 µM (inactive), the GI50 (LOX IMVI) was 17.2 µM (inactive) and the GI50 (M14) was 61.1 µM (inactive). The GI50 (MCF7) was 13.1 µM (inactive), the GI50 (MDA-MB-231) was 16.1 µM (inactive) and the GI50 (MDA-MB-435) was 35.8 µM (inactive). The GI50 (MDA-N) was 37 µM (inactive), the GI50 (MOLT-4) was 14.5 µM (inactive) and the GI50 (Malme-3M) was 28.8 µM (inactive). For the same molecule, the GI50 (NCI-H226) was 50.5 µM (inactive), the GI50 (NCI-H23) was 34.2 µM (inactive) and the GI50 (NCI-H460) was 32 µM (inactive). For the same molecule, the GI50 (NCI-H522) was 19.3 µM (inactive), the GI50 (NCI/ADR-RES) was 47.3 µM (inactive) and the GI50 (OVCAR-3) was 47.1 µM (inactive). The GI50 (OVCAR-4) was > 100 µM (inactive), the GI50 (OVCAR-5) was 32.3 µM (inactive) and the GI50 (OVCAR-8) was 44.5 µM (inactive). For the same molecule, the GI50 (PC-3) was 47.5 µM (inactive), the GI50 (RPMI-8226) was 0.783 µM (active) and the GI50 (RXF 393) was 25.2 µM (inactive). For the same molecule, the GI50 (SF-268) was 55.7 µM (inactive), the GI50 (SF-295) was 16.9 µM (inactive) and the GI50 (SF-539) was 10.8 µM (inactive). For the same molecule, the GI50 (SK-MEL-28) was 53.5 µM (inactive), the GI50 (SK-MEL-2) was 24.8 µM (inactive) and the GI50 (SK-MEL-5) was 30.2 µM (inactive). For the same molecule, the GI50 (SK-OV-3) was 18.2 µM (inactive), the GI50 (SN12C) was 37.1 µM (inactive) and the GI50 (SNB-19) was 28 µM (inactive). The GI50 (SNB-75) was 59 µM (inactive), the GI50 (SR) was 25.9 µM (inactive) and the GI50 (SW-620) was 32.6 µM (inactive). For the same molecule, the GI50 (T47D) was 24.2 µM (inactive), the GI50 (TK-10) was 50.4 µM (inactive) and the GI50 (U-251) was 27.7 µM (inactive). The GI50 (UACC-257) was 34.4 µM (inactive), the GI50 (UACC-62) was 33.7 µM (inactive) and the GI50 (UO-31) was 28.5 µM (inactive).
With `COc1ccc(-c2c3c(nc4[nH]c(=S)[nH]c(=S)c24)CCCC3)cc1OC` the GI50 (A549) was 21.3 µM (inactive), the GI50 (ACHN) was 51.1 µM (inactive) and the GI50 (BT-549) was 48.9 µM (inactive). For the same molecule, the GI50 (CAKI-1) was 34.7 µM (inactive), the GI50 (CCRF-CEM) was 28.5 µM (inactive) and the GI50 (COLO 205) was 45 µM (inactive). For the same molecule, the GI50 (DU-145) was 35.8 µM (inactive), the GI50 (EKVX) was 22.4 µM (inactive) and the GI50 (HCT-116) was 29.4 µM (inactive). For the same molecule, the GI50 (HCT-15) was 30.1 µM, the GI50 (HL-60) was 24.7 µM (inactive) and the GI50 (HOP-62) was 19.6 µM (inactive). The GI50 (HT-29) was 22.1 µM (inactive), the GI50 (Hs-578T) was 13.3 µM (inactive) and the GI50 (IGROV-1) was 29.9 µM (inactive). For the same molecule, the GI50 (K562) was 30 µM (inactive), the GI50 (KM12) was 30.9 µM (inactive) and the GI50 (LOX IMVI) was 16.8 µM (inactive). For the same molecule, the GI50 (M14) was 28.6 µM (inactive), the GI50 (MCF7) was 29.6 µM (inactive) and the GI50 (MDA-MB-231) was 18 µM (inactive). The GI50 (MDA-MB-435) was 34.5 µM (inactive), the GI50 (MDA-N) was 34.3 µM (inactive) and the GI50 (MOLT-4) was 19.9 µM (inactive). For the same molecule, the GI50 (Malme-3M) was 29 µM (inactive), the GI50 (NCI-H23) was 29.3 µM (inactive) and the GI50 (NCI-H460) was 18.5 µM (inactive). For the same molecule, the GI50 (NCI/ADR-RES) was 21.5 µM (inactive), the GI50 (OVCAR-3) was 52.1 µM (inactive) and the GI50 (OVCAR-4) was 36.6 µM (inactive). The GI50 (OVCAR-5) was 28.8 µM (inactive), the GI50 (OVCAR-8) was 23.9 µM (inactive) and the GI50 (PC-3) was 24 µM (inactive). The GI50 (RPMI-8226) was 21 µM (inactive), the GI50 (RXF 393) was 11.9 µM (inactive) and the GI50 (SF-268) was 31 µM (inactive). The GI50 (SF-295) was 14.7 µM (inactive), the GI50 (SF-539) was 15.3 µM (inactive) and the GI50 (SK-MEL-28) was 24.2 µM (inactive). The GI50 (SK-MEL-5) was 16.6 µM (inactive), the GI50 (SK-OV-3) was 44.4 µM (inactive) and the GI50 (SN12C) was 13.5 µM (inactive). The GI50 (SNB-19) was 34.3 µM (inactive), the GI50 (SNB-75) was 14.3 µM (inactive) and the GI50 (SR) was 27.9 µM (inactive). For the same molecule, the GI50 (SW-620) was 35.8 µM (inactive), the GI50 (T47D) was 25.9 µM (inactive) and the GI50 (TK-10) was 17.6 µM (inactive). For the same molecule, the GI50 (U-251) was 18.4 µM (inactive), the GI50 (UACC-257) was 32 µM (inactive) and the GI50 (UACC-62) was 19.6 µM (inactive). For the same molecule, the GI50 (UO-31) was 14.6 µM (inactive).
In the case of `CCOC(=O)c1cc(C2CCN(CC(C)CC)C2=S)c(C(=O)/C=C(/C)N)[nH]1` (configuration not stated), the GI50 (786-0) is reported as > 50 µM (inactive), the GI50 (A498) is reported as > 50 µM (inactive) and the GI50 (ACHN) is reported as > 50 µM (inactive). For the same molecule, the GI50 (BT-549) was > 50 µM (inactive), the GI50 (CAKI-1) was > 50 µM (inactive) and the GI50 (CCRF-CEM) was > 50 µM (inactive). The GI50 (COLO 205) was > 50 µM (inactive), the GI50 (DU-145) was > 50 µM (inactive) and the GI50 (EKVX) was > 50 µM (inactive). For the same molecule, the GI50 (HCT-116) was > 50 µM (inactive), the GI50 (HCT-15) was over 50 µM and the GI50 (HL-60) was > 50 µM (inactive). The GI50 (HOP-62) was > 50 µM (inactive), the GI50 (HT-29) was > 50 µM (inactive) and the GI50 (Hs-578T) was > 50 µM (inactive). The GI50 (IGROV-1) was > 50 µM (inactive), the GI50 (K562) was > 50 µM (inactive) and the GI50 (KM12) was > 50 µM (inactive). For the same molecule, the GI50 (LOX IMVI) was > 50 µM (inactive), the GI50 (M14) was > 50 µM (inactive) and the GI50 (MCF7) was > 50 µM (inactive). The GI50 (MDA-MB-231) was > 50 µM (inactive), the GI50 (MDA-MB-435) was > 50 µM (inactive) and the GI50 (MDA-N) was > 50 µM (inactive). For the same molecule, the GI50 (MOLT-4) was > 50 µM (inactive), the GI50 (Malme-3M) was > 50 µM (inactive) and the GI50 (NCI-H226) was > 50 µM (inactive). For the same molecule, the GI50 (NCI-H23) was > 50 µM (inactive), the GI50 (NCI-H460) was > 50 µM (inactive) and the GI50 (NCI/ADR-RES) was > 50 µM (inactive). The GI50 (OVCAR-3) was > 50 µM (inactive), the GI50 (OVCAR-5) was > 50 µM (inactive) and the GI50 (OVCAR-8) was > 50 µM (inactive). For the same molecule, the GI50 (PC-3) was > 50 µM (inactive), the GI50 (RPMI-8226) was > 50 µM (inactive) and the GI50 (RXF 393) was > 50 µM (inactive). For the same molecule, the GI50 (SF-268) was > 50 µM (inactive), the GI50 (SF-295) was > 50 µM (inactive) and the GI50 (SF-539) was > 50 µM (inactive). The GI50 (SK-MEL-2) was > 50 µM (inactive), the GI50 (SK-MEL-5) was > 50 µM (inactive) and the GI50 (SK-OV-3) was > 50 µM (inactive). For the same molecule, the GI50 (SN12C) was > 50 µM (inactive), the GI50 (SNB-19) was > 50 µM (inactive) and the GI50 (SNB-75) was > 50 µM (inactive). For the same molecule, the GI50 (SR) was > 50 µM (inactive), the GI50 (SW-620) was > 50 µM (inactive) and the GI50 (T47D) was > 50 µM (inactive). For the same molecule, the GI50 (TK-10) was > 50 µM (inactive), the GI50 (U-251) was > 50 µM (inactive) and the GI50 (UACC-257) was > 50 µM (inactive). For the same molecule, the GI50 (UACC-62) was > 50 µM (inactive) and the GI50 (UO-31) was > 50 µM (inactive).

— ChEMBL document CHEMBL1201862, “PubChem BioAssay data set” (2004)
